What was measured:
Italian ryegrass = test: Test Example 5: herbicidal effect by foliage application, plastic box (Table 20, symbol K); format: in vivo, Italian ryegrass (Lolium multiflorum); conditions: foliage application, 320 g/ha, three weeks after application
Outline: (§1)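 Foliar spray test: emulsion formulation diluted in water to a set application rate, sprayed onto 14-day-old plants raised in diluvial soil at 25° C to 30° C under glass. Both herbicidal effect and crop effect rated visually three weeks later.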

barnyard grass = test: Test Example 3: herbicidal effect by foliage application, Wagner pot (Table 18, symbol H); format: in vivo, barnyard grass (Echinochloa crus-galli); conditions: for Herbicidal effect on H (barnyard grass), foliage application: amount of applied herbicide 320 g/ha
Outline: (§2)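 Plants were sown in alluvial soil held under 0.1–0.5 cm standing water and grown 14 days in a greenhouse at 25–30 °C. An emulsifiable formulation, water-diluted to the set dose, was then sprayed onto the foliage, and effects were scored three weeks later using previously defined criteria.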

green foxtail = test: Test Example 4: herbicidal effect by soil treatment (Table 19, symbol G); format: in vivo, green foxtail (Setaria viridis); conditions: amount of applied herbicide 320 g/ha
Outline: (§3)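 Herbicidal effect was rated 3 weeks after treatment, using the scoring criteria of an earlier test. The compound, formulated as an emulsion and diluted in water to a set herbicide amount, had been sprayed uniformly on soil over freshly sown seeds. Growth took place in a greenhouse at 25° C. to 30° C.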

chickweed = test: Test Example 4: herbicidal effect by soil treatment (Table 19, symbol P); format: in vivo, common chickweed (Stellaria media); conditions: amount of applied herbicide 320 g/ha
Outline: as §3

lambsquarters [1] = test: Test Example 5: herbicidal effect by foliage application, plastic box (Table 20, symbol O); format: in vivo, lambsquarters (Chenopodium album); conditions: foliage application, 320 g/ha, three weeks after application
Outline: as §1

windgrass [2] = test: Test Example 4: herbicidal effect by soil treatment (Table 19, symbol L); format: in vivo, windgrass (Apera spica-venti); conditions: amount of applied herbicide 320 g/ha
Outline: as §3

velvetleaf [3] = test: Test Example 5: herbicidal effect by foliage application, plastic box (Table 20, symbol M); format: in vivo, velvetleaf (Abutilon theophrasti); conditions: foliage application, 320 g/ha, three weeks after application
Outline: as §1

oval-leafed pondweed = test: Test Example 1: herbicidal activity, application before weed generation under submerged conditions (Table 16, symbol C); format: in vivo, oval-leafed pondweed (Monochoria vaginalis); conditions: amount of applied herbicide 320 g/ha
Outline: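 Emulsion formulation, water-diluted to set dose, was put onto the flooded surface (4 cm depth, alluvial soil) the same day weeds were sown and 2.5-leaf rice transplanted. After 3 weeks at 25-30 °C under glass, each species was rated 0 (≤5% kill) to 5 (≥90% kill).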

persian speedwell [4] = test: Test Example 5: herbicidal effect by foliage application, plastic box (Table 20, symbol R); format: in vivo, Persian speedwell (Veronica persica); conditions: foliage application, 320 g/ha, three weeks after application
Outline: as §1

lambsquarters [5] = test: Test Example 4: herbicidal effect by soil treatment (Table 19, symbol O); format: in vivo, lambsquarters (Chenopodium album); conditions: amount of applied herbicide 320 g/ha
Outline: as §3

windgrass [6] = test: Test Example 5: herbicidal effect by foliage application, plastic box (Table 20, symbol L); format: in vivo, windgrass (Apera spica-venti); conditions: foliage application, 320 g/ha, three weeks after application
Outline: as §1

Chinese sprangletop = test: Test Example 3: herbicidal effect by foliage application, Wagner pot (Table 18, symbol D); format: in vivo, chinese sprangletop (Leptochloa chinensis); conditions: for Herbicidal effect on D (Chinese sprangletop), foliage application: amount of applied herbicide 320 g/ha
Outline: as §2

late watergrass = test: Test Example 2: herbicidal activity, application during weed generation under submerged conditions (Table 17, symbol A); format: in vivo, late watergrass (Echinochloa oryzicola); conditions: AAH 320 g/ha; application during weed generation, submerged conditions
Outline: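 Herbicide emulsion, diluted with water to the chosen amount, is applied onto 4 cm floodwater over alluvial soil where the weeds were co-sown and raised at 25–30° C. Application timing: 1–2 leaves. Assessment: three weeks afterwards.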

velvetleaf [7] = test: Test Example 4: herbicidal effect by soil treatment (Table 19, symbol M); format: in vivo, velvetleaf (Abutilon theophrasti); conditions: amount of applied herbicide 320 g/ha
Outline: as §3

persian speedwell [8] = test: Test Example 4: herbicidal effect by soil treatment (Table 19, symbol R); format: in vivo, Persian speedwell (Veronica persica); conditions: amount of applied herbicide 320 g/ha
Outline: as §3

rice flat sedge = test: Test Example 3: herbicidal effect by foliage application, Wagner pot (Table 18, symbol E); format: in vivo, rice flat sedge (Cyperus iria); conditions: for Herbicidal effect on E (rice flat sedge), foliage application: amount of applied herbicide 320 g/ha
Outline: as §2

southern crabgrass = test: Test Example 5: herbicidal effect by foliage application, plastic box (Table 20, symbol F); format: in vivo, southern crabgrass (Digitaria ciliaris); conditions: foliage application, 320 g/ha, three weeks after application
Outline: as §1

SMILES | herbicidal effect on Italian ryegrass (K) (Italian ryegrass) | herbicidal effect on barnyard grass (H) (barnyard grass; 320 g/ha) | G: green foxtail, herbicidal effect grade (green foxtail) | P: chickweed, herbicidal effect grade (chickweed) | herbicidal effect on lambsquarters (O) (lambsquarters [1]) | L: windgrass, herbicidal effect grade (windgrass [2]) | herbicidal effect on velvetleaf (M) (velvetleaf [3]) | Herbicidal effect, C: oval-leafed pondweed (oval-leafed pondweed) | herbicidal effect on persian speedwell (R) (persian speedwell [4]) | O: lambsquarters, herbicidal effect grade (lambsquarters [5]) | herbicidal effect on windgrass (L) (windgrass [6]) | herbicidal effect on Chinese sprangletop (D) (Chinese sprangletop; 320 g/ha) | herbicidal effect rating, A: late watergrass (late watergrass) | M: velvetleaf, herbicidal effect grade (velvetleaf [7]) | R: persian speedwell, herbicidal effect grade (persian speedwell [8]) | herbicidal effect on rice flat sedge (E) (rice flat sedge; 320 g/ha) | herbicidal effect on southern crabgrass (F) (southern crabgrass) | Herbicidal effect on H (barnyard grass), foliage application (barnyard grass) | Herbicidal effect on D (Chinese sprangletop), foliage application (Chinese sprangletop) | Herbicidal effect on E (rice flat sedge), foliage application (rice flat sedge)
CCOc1ccccc1-c1sc2cc(C)c(C)cc2c1-c1c(O)c(C)nn(C)c1=O [5-094] | 5 (Herbicidal rate of 90% or more (almost completely withered)) | 5 (Herbicidal rate of 90% or more (almost completely withered)) | 4 (Herbicidal rate of 70% or more and less than 90%) | 1 (Herbicidal rate of 5% or more and less than 20%) | 4 (Herbicidal rate of 70% or more and less than 90%) | 3 (Herbicidal rate of 40% or more and less than 70%) | 4 (Herbicidal rate of 70% or more and less than 90%) | 4 (Herbicidal rate of 70% or more and less than 90%) | 5 (Herbicidal rate of 90% or more (almost completely withered)) | 3 (Herbicidal rate of 40% or more and less than 70%) | 4 (Herbicidal rate of 70% or more and less than 90%) | 3 (Herbicidal rate of 40% or more and less than 70%) | 2 (Herbicidal rate of 20% or more and less than 40%) | 1 (Herbicidal rate of 5% or more and less than 20%) | 3 (Herbicidal rate of 40% or more and less than 70%) | 4 (Herbicidal rate of 70% or more and less than 90%) | 5 (Herbicidal rate of 90% or more (almost completely withered)) | – | – | –
COc1ccccc1-c1sc2c(Br)c(OC)ccc2c1-c1c(O)c(C)nn(C)c1=O [7-002] | 5 (Herbicidal rate of 90% or more (almost completely withered)) | – | 0 (Herbicidal rate of 5% or less (almost no effect)) | 3 (Herbicidal rate of 40% or more and less than 70%) | 4 (Herbicidal rate of 70% or more and less than 90%) | 0 (Herbicidal rate of 5% or less (almost no effect)) | 4 (Herbicidal rate of 70% or more and less than 90%) | 3 (Herbicidal rate of 40% or more and less than 70%) | 5 (Herbicidal rate of 90% or more (almost completely withered)) | 4 (Herbicidal rate of 70% or more and less than 90%) | 5 (Herbicidal rate of 90% or more (almost completely withered)) | – | 3 (Herbicidal rate of 40% or more and less than 70%) | 1 (Herbicidal rate of 5% or more and less than 20%) | 3 (Herbicidal rate of 40% or more and less than 70%) | – | 0 (Herbicidal rate of 5% or less (almost no effect)) | 5 (Herbicidal rate of 90% or more (almost completely withered)) | 2 (Herbicidal rate of 20% or more and less than 40%) | 4 (Herbicidal rate of 70% or more and less than 90%)
Cc1nn(C)c(=O)c(-c2c(-c3ccc4c(c3)OCCO4)oc3ccccc23)c1O [8-002] | 4 (Herbicidal rate of 70% or more and less than 90%) | – | 3 (Herbicidal rate of 40% or more and less than 70%) | 5 (Herbicidal rate of 90% or more (almost completely withered)) | 0 (Herbicidal rate of 5% or less (almost no effect)) | 0 (Herbicidal rate of 5% or less (almost no effect)) | 5 (Herbicidal rate of 90% or more (almost completely withered)) | 4 (Herbicidal rate of 70% or more and less than 90%) | 5 (Herbicidal rate of 90% or more (almost completely withered)) | 0 (Herbicidal rate of 5% or less (almost no effect)) | 1 (Herbicidal rate of 5% or more and less than 20%) | – | 3 (Herbicidal rate of 40% or more and less than 70%) | 0 (Herbicidal rate of 5% or less (almost no effect)) | 5 (Herbicidal rate of 90% or more (almost completely withered)) | – | 1 (Herbicidal rate of 5% or more and less than 20%) | 4 (Herbicidal rate of 70% or more and less than 90%) | 3 (Herbicidal rate of 40% or more and less than 70%) | 4 (Herbicidal rate of 70% or more and less than 90%)
CCCOc1ccc(-c2oc3ccccc3c2-c2c(O)c(C)nn(C)c2=O)cc1 [8-003] | 4 (Herbicidal rate of 70% or more and less than 90%) | – | 2 (Herbicidal rate of 20% or more and less than 40%) | 1 (Herbicidal rate of 5% or more and less than 20%) | 3 (Herbicidal rate of 40% or more and less than 70%) | 0 (Herbicidal rate of 5% or less (almost no effect)) | 5 (Herbicidal rate of 90% or more (almost completely withered)) | 5 (Herbicidal rate of 90% or more (almost completely withered)) | 5 (Herbicidal rate of 90% or more (almost completely withered)) | 3 (Herbicidal rate of 40% or more and less than 70%) | 0 (Herbicidal rate of 5% or less (almost no effect)) | – | 4 (Herbicidal rate of 70% or more and less than 90%) | 1 (Herbicidal rate of 5% or more and less than 20%) | 4 (Herbicidal rate of 70% or more and less than 90%) | – | 2 (Herbicidal rate of 20% or more and less than 40%) | 5 (Herbicidal rate of 90% or more (almost completely withered)) | 3 (Herbicidal rate of 40% or more and less than 70%) | 4 (Herbicidal rate of 70% or more and less than 90%)

Reference: patent US20230085307A1, “PYRIDAZINONE COMPOUND AND HERBICIDE” (NISSAN CHEMICAL CORPORATION, priority 2019, published 2023)
